The source of these data is ChEMBL document CHEMBL1201862, “PubChem BioAssay data set” (2004).

Molecules are shown by their SMILES. Calls of active or inactive are those of the source. Bounds are passed on as bounds.

The target in assay [1] is Histone-lysine N-methyltransferase NSD2 (Homo sapiens, UniProt O96028). The format is biochemical.
Assay [2] deals with T1, Protein RecA (Mycobacterium tuberculosis, UniProt P9WHJ3).
T1 sequence (P9WHJ3 whole entry): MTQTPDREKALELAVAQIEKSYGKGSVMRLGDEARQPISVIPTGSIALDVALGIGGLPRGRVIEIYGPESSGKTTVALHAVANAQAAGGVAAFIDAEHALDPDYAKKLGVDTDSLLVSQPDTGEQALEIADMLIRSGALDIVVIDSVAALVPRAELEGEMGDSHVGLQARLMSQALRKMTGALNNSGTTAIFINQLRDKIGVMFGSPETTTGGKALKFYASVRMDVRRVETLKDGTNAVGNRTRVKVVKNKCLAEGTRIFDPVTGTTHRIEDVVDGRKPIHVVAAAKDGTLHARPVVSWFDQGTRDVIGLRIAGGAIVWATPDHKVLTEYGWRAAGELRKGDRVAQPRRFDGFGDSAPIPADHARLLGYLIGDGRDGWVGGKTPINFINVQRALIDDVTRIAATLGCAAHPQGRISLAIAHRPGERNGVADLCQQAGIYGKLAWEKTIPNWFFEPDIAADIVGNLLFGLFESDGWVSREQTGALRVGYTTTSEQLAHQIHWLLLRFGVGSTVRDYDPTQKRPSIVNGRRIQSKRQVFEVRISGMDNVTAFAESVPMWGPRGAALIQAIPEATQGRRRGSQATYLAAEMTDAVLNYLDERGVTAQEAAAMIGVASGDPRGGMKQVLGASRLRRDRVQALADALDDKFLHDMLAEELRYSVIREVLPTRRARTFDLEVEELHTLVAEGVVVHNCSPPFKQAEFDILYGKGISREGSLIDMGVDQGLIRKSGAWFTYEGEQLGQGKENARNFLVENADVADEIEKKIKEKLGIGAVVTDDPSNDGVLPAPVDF
Nature of the assay: Fluorescence Cell-Free Homogeneous Dose Retest to Identify Inhibitors of RecA-Intein Splicing Activity. [Related pubchem assays (depositor defined):AID2097, AID2223, AID489010, AID492950]. The format is functional.

In assay [3] the target is 14-3-3 protein gamma (Homo sapiens, UniProt P61981). Nature of the assay: modulators of 14-3-3 gamma client binding – dose response (AID 711). It counts as functional.
For assay [4], the target named is T2, Fibrinogen beta chain (Homo sapiens, UniProt P02675). Nature of the assay: Fluorescence polarization-based biochemical high throughput dose response assay to identify inhibitors that disrupt the binding of a cyclic peptide (Tn6) to the fibrin proteolytic product D-Dimer and fragment E complex [DD(E )].
The target of assay [5] is T3, Replicative DNA helicase DnaB (Mycobacterium tuberculosis, UniProt P9WMR3).
T3 sequence (P9WMR3 whole entry): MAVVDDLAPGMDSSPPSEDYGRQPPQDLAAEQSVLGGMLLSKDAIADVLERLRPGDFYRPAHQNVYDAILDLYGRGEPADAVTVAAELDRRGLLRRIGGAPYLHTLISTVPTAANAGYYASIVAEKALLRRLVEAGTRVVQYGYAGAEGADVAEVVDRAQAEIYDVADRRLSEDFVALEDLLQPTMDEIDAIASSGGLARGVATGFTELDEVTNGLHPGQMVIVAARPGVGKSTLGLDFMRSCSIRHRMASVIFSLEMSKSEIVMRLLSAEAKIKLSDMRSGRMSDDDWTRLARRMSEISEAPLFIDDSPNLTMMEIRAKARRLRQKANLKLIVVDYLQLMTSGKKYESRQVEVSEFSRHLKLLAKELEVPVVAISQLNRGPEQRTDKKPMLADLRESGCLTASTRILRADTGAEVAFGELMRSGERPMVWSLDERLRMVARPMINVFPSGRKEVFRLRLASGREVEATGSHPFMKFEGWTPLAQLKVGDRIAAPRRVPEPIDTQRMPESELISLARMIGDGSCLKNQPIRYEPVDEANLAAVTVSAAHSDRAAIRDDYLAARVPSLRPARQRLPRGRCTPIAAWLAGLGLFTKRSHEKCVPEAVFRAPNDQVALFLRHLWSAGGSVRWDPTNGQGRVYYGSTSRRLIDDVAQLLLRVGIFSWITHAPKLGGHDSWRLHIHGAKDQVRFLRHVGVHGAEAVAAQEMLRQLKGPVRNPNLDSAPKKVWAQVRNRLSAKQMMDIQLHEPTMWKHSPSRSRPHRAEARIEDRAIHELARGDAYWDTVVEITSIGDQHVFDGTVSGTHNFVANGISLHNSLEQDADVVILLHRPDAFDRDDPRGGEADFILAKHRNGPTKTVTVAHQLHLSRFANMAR
The assay can be described thus: DnaB intein splicing inhibitors, dose response, biochemical, cell-free fluorescence (AID 449749). It counts as functional.

Assay [6] concerns the target Glutathione-S-transferase (Schistosoma japonicum, UniProt Q26513). Nature of the assay: biotin-GST/anti-GST TR-FRET signal inhibitors, dose response, artefact control for Vif-APOBEC3G degradation inhibitor project, biochemical (AID 1117362). It counts as functional.
Assay [7] has as its system HeLa. Nature of the assay: HeLa cell cytotoxicity, dose response, cytotoxicity control, 24 h, cherry-picked samples (AID 504726).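 Also: potency for cytotoxicity as loss of luminescence signal.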 The format is functional, cell-based. The settings on record: Homo sapiens.
Assay [8] has as its target T2, Fibrinogen beta chain. Nature of the assay: Fluorescence polarization-based biochemical high throughput dose response assay to identify inhibitors that disrupt the binding of a cyclic peptide (Tn7) to the fibrin proteolytic product D-Dimer and fragment E complex [DD(E )].
In assay [9] the target is T4, Sentrin-specific protease 8 (Homo sapiens, UniProt Q96LD8).
T4 sequence (Q96LD8 whole entry): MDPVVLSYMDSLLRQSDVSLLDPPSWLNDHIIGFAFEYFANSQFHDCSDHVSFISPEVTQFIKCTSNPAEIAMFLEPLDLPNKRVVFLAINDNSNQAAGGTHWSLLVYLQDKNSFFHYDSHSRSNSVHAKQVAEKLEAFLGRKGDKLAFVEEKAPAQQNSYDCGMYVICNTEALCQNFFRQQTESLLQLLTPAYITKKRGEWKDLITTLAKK
It counts as functional.

The target in assay [10] is T4, Sentrin-specific protease 8. The format is functional. The source holds these as a separate data set.
The target of assay [11] is T5, Tyrosyl-DNA phosphodiesterase 2 (Homo sapiens, UniProt O95551).
T5 sequence (O95551 whole entry): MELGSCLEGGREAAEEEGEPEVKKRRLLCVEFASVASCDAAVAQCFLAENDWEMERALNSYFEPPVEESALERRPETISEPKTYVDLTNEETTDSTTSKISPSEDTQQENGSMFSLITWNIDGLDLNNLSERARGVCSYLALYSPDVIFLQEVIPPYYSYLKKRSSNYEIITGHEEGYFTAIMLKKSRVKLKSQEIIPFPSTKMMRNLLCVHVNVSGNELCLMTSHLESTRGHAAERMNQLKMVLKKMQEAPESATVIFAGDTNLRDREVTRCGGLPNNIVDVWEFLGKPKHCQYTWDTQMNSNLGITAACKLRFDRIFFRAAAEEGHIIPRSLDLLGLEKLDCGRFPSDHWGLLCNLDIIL
The assay can be described thus: human TDP2 enzyme inhibitors, dose response, biochemical, epi absorbance, IC50 (AID 743297).

For assay [12], the system named is HEK293. The assay can be described thus: cells. It counts as functional, cell-based. The conditions noted are these: Homo sapiens.
Assay [13] in a line: inhibitors of Bluetongue virus cytopathic effect, confirmation, arbovirus, BSR cells (AID 1250).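 Also: protection from viral cytopathic effect measured as cell viability by ATP luminescence.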 It counts as functional.
The test system of assay [14] is HEK293. The assay can be described thus: cells. The settings on record: Homo sapiens. It counts as functional, cell-based. The source holds these as a separate data set.
Assay [15] deals with HEK293. The assay can be described thus: NOD1 signaling inhibitors, primary screen, cell-based, luminescence, uHTS (AID 1578). The format is functional. The settings on record: Homo sapiens.
For assay [16], the target named is Nucleotide-binding oligomerization domain-containing protein 2 (Homo sapiens, UniProt Q9HC29). Nature of the assay: PubChem AID 2334. It counts as functional.
Assay [17] relates to HEK293. Nature of the assay: NOD2 signaling inhibitors in MDP-stimulated cells, cell-based, uHTS, luminescence (AID 2001). It counts as functional. The settings on record: Homo sapiens.
Assay [18] has as its target T6, Nucleotide-binding oligomerization domain-containing protein 1 (Homo sapiens, UniProt Q9Y239).
T6 sequence (Q9Y239 whole entry): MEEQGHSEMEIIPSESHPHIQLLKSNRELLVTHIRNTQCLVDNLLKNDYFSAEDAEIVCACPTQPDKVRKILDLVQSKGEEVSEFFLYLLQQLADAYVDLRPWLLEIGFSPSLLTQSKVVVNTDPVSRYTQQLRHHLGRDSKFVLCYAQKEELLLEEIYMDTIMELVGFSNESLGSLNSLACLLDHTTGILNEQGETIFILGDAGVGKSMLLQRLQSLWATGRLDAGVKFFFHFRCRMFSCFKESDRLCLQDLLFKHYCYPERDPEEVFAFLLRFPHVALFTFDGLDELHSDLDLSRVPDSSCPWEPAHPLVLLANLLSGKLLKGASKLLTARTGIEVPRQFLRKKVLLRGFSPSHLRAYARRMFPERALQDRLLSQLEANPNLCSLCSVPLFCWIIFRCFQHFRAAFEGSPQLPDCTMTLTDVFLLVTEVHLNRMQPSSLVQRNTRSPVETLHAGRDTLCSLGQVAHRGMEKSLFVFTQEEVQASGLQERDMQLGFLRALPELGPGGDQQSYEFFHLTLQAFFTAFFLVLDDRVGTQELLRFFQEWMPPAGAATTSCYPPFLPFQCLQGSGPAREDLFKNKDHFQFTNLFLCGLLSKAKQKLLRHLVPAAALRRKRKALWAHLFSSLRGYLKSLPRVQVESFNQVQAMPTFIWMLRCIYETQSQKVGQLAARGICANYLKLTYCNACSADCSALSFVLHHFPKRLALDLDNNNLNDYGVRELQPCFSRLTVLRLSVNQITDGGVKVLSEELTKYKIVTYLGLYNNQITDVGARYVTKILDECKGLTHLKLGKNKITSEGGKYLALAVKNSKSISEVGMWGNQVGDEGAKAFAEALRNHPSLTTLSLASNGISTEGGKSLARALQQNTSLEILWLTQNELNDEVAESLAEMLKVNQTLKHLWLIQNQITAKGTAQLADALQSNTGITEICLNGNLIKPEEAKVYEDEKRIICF
Nature of the assay: NOD1 signaling inhibitors, SAR follow-up, revised (AID 2333). It counts as functional.

The target in assay [19] is Tumor necrosis factor (Homo sapiens, UniProt P01375). Nature of the assay: TNFa-triggered NF-kB activation inhibitors, SAR follow-up, cell-based, revised (AID 2337). The format is functional.
The subject of assay [20] is HEK293. The assay can be described thus: cells. The settings on record: Homo sapiens.
Assay [21] in a line: THP-1 cell cytotoxicity, dose response, cytotoxicity control for Vif-APOBEC3G degradation inhibitor project, THP-1 cells (AID 1117359). The format is functional. The conditions noted are these: Human immunodeficiency virus 1, THP-1.
Assay [22] has as its target Hexokinase HKDC1 (Homo sapiens, UniProt Q2TB90). Nature of the assay: HKDC1 hexokinase inhibitors, dose response, biochemical, W721R variant (AID 504729). It counts as functional.
Assay [23] has as its target Beta-galactosidase (Escherichia coli, UniProt Q8VNN2). The assay can be described thus: beta-galactosidase enzyme inhibitors and activators, dose response, artefact control for CCR6 antagonist project, biochemical, E. coli enzyme, set 3 (AID 504712). It counts as functional.
For assay [24], the target named is C-C chemokine receptor type 6 (Homo sapiens, UniProt P51684). Nature of the assay: CCR6 receptor antagonists, dose response, cell-based, luminescent beta-arrestin readout (AID 504728). The format is functional.
Assay [25] deals with Dual specificity protein phosphatase 3 (Homo sapiens, UniProt P51452). The assay can be described thus: VHR1 inhibitor Ki determination, SAR follow-up, biochemical, colorimetric (AID 2004).
Assay [26] addresses X-box-binding protein 1 (Homo sapiens, UniProt P17861). It counts as functional, Cricetulus griseus.
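For Absolute IC50 (XBP1) in this document: confirmatory dose-response counter-screen serving a CHOP assay.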

T2 sequence (P02675 whole entry, the tested form may be a part): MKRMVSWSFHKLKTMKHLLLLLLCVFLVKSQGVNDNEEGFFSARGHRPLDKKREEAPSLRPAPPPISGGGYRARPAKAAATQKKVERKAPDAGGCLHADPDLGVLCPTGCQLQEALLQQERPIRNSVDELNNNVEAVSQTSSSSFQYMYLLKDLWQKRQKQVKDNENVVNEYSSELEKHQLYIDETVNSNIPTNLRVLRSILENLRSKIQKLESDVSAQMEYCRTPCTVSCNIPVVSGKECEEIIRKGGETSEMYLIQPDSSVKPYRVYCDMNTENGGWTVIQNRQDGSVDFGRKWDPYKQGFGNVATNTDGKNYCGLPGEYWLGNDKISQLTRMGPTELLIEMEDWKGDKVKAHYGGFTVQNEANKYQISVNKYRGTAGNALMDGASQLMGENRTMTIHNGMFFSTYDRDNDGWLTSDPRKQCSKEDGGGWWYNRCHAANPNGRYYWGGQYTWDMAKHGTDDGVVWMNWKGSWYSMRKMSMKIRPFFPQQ
Chain of Glutathione-S-transferase (Q26513 whole entry): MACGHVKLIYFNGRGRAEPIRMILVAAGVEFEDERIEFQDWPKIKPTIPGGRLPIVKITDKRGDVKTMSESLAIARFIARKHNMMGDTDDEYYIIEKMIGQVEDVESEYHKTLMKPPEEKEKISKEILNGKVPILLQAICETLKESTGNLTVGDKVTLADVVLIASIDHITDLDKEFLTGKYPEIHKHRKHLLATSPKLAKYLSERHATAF
Chain of Hexokinase HKDC1 (Q2TB90 whole entry): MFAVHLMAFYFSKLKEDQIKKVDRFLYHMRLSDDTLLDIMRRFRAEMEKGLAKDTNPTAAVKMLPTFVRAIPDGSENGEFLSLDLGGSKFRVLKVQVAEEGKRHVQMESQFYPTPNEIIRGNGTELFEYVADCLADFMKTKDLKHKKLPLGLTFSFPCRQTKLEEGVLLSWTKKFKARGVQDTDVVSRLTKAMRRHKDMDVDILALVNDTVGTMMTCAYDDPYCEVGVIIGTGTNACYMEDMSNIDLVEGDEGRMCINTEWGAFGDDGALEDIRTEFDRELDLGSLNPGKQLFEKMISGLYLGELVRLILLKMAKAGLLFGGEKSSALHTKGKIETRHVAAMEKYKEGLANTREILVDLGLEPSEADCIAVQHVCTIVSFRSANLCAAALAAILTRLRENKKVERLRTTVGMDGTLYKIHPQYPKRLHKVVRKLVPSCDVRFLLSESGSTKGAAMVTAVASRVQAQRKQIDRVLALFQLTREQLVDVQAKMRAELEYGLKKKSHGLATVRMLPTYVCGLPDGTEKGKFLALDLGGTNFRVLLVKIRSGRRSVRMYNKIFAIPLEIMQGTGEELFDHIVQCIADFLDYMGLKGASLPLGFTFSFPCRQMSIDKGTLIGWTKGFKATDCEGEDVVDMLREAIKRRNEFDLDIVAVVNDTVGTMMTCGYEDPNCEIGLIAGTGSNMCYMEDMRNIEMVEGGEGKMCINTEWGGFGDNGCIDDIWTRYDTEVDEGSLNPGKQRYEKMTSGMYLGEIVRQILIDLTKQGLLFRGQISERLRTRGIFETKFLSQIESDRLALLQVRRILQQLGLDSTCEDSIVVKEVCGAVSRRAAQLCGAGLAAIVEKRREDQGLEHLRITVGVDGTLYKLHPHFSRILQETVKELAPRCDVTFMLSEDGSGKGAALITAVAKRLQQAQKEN
Chain of Beta-galactosidase (Q8VNN2 whole entry): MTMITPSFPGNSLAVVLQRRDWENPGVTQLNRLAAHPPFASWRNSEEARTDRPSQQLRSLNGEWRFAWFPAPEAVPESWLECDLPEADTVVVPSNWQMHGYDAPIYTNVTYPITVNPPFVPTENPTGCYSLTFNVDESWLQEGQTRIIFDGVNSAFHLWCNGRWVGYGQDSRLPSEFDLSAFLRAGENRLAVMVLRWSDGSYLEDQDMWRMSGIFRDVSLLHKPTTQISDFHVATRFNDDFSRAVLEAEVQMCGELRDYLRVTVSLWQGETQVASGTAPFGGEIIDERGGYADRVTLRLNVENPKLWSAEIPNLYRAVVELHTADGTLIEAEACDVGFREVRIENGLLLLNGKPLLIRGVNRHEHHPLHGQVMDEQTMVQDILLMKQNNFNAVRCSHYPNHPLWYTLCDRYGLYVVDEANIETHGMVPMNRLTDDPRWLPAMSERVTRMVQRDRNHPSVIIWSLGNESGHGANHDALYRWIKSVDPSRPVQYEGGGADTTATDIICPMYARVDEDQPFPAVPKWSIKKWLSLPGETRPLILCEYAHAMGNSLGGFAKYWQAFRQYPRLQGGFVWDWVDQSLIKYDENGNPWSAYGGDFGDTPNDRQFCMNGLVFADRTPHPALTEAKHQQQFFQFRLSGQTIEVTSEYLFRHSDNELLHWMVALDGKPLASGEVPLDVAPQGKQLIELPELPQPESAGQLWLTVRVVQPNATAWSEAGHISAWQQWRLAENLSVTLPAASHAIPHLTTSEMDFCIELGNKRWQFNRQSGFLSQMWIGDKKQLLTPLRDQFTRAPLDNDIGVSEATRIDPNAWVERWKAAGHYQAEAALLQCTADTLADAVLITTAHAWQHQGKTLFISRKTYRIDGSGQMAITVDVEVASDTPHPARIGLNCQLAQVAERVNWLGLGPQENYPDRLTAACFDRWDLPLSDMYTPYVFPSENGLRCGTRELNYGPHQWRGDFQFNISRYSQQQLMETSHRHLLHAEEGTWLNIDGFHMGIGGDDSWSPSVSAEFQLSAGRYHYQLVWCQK
Chain of Histone-lysine N-methyltransferase NSD2 (O96028 whole entry): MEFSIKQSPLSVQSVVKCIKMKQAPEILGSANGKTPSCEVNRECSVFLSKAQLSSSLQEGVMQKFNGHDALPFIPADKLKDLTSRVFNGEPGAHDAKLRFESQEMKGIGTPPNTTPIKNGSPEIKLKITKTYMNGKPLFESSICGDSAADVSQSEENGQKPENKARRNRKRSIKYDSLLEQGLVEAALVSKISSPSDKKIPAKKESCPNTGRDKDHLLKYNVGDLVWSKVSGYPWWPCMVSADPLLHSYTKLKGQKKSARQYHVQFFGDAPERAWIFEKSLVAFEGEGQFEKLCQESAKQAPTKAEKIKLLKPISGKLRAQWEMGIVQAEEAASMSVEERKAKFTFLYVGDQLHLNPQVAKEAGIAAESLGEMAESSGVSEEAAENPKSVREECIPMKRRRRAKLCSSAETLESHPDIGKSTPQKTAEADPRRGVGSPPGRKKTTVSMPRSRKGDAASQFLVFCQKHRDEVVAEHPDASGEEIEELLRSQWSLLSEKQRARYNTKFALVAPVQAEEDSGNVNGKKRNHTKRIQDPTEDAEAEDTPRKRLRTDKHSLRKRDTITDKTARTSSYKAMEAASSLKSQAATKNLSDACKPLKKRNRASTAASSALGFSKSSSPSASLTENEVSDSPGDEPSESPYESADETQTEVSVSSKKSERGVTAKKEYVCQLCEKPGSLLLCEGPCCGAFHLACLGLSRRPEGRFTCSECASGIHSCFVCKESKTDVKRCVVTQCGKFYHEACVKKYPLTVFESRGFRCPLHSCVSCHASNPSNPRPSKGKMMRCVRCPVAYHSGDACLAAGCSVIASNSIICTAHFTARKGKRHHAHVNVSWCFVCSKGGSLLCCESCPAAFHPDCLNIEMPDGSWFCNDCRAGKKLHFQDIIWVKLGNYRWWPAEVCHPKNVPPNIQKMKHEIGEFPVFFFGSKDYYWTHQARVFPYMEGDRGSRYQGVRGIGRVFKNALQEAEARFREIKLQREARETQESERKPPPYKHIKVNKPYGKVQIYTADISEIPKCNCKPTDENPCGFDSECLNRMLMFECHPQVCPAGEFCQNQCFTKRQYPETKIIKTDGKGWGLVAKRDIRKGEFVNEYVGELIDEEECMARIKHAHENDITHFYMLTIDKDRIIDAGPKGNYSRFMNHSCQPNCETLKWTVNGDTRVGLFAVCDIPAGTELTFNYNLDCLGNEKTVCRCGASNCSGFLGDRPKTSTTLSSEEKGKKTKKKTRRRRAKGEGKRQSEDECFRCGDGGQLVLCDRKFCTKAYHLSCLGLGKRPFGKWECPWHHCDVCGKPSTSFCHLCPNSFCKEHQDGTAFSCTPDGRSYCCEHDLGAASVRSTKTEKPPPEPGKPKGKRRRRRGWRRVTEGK
Chain of Dual specificity protein phosphatase 3 (P51452 whole entry): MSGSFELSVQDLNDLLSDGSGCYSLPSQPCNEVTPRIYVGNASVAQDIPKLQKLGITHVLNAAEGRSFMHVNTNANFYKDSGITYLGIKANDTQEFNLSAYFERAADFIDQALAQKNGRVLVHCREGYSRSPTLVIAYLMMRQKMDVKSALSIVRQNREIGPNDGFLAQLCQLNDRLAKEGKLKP
Chain of X-box-binding protein 1 (P17861 whole entry): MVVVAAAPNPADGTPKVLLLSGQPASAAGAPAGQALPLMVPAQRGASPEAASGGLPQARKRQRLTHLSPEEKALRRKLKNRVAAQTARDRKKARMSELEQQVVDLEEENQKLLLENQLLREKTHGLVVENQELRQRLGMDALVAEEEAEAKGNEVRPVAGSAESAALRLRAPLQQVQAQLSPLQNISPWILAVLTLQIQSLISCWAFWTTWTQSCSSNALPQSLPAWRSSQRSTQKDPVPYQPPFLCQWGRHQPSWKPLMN
Chain of Tumor necrosis factor (P01375 whole entry): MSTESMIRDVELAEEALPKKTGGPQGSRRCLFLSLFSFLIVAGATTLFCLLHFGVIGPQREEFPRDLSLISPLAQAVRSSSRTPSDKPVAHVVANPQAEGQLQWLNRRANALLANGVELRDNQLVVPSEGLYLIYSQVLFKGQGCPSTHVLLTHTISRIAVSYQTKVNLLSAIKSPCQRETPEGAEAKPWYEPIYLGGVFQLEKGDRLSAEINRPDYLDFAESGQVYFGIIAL
Chain of 14-3-3 protein gamma (P61981 whole entry, the tested form may be a part): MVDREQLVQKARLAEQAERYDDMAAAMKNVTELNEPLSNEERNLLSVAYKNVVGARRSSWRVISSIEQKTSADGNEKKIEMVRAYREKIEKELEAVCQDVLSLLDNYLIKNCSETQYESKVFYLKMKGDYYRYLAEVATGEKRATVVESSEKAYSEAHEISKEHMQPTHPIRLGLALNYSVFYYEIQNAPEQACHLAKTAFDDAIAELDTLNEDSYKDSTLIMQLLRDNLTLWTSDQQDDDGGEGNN

Take `Cc1cc2c(N)cccc2nn1`: the AC50 in [1] is 4.77 µM (active); in assay [5] it was > 380 µM (inactive); in [7], > 350 µM (inactive). For the same compound, the EC50 in assay [2] is 54.6 µM (active). The IC50 in assay [3] was > 50 µM (not active); in [4] it was > 83.3 µM (inactive); in assay [6], 52.6 µM (active); in [8], > 83.3 µM (inactive); in [9], 2.14 µM (active); in assay [10], 6 µM (active). The IC50 in assay [11] is 27.2 µM (inactive).
On to `CS(=O)(=O)c1ccc2nc(NC(=O)c3cccc(NS(=O)(=O)c4ccc(F)c(F)c4)c3)sc2c1`, for which the IC50 in [12] was > 20 µM (inactive); in assay [13] it was 23.7 µM (active); in assay [14], > 20 µM (inactive); in assay [16], 18.4 µM (active); in assay [17] it was > 20 µM (inactive); in [18], 3.16 µM (active). For the same compound, the IC50 is 16.9 µM (active) in [19] and > 20 µM (inactive) in [20]. Moreover, the EC50 in assay [15] is 5.5 µM (active).
`O=C1C(CO)=C(CO)C(=O)c2c(O)ccc(O)c21`: the IC50 is > 100 µM (active) in assay [6] and 15.2 µM (active) in [22]. The CC50 in [21] is 25.3 µM (active).
With `CCN1CCC(O)(/C=C/c2ccc(C)cc2)C(C(=O)/C=C/c2ccc(C)cc2)C1` (configuration not stated), the values for the IC50 in assay [23] and in assay [24] were > 66.6 µM (inactive) and 22.8 µM (inactive), respectively.
Take `O=C1/C(=C\c2ccc(-c3cccc(Cl)c3)o2)SC(=S)N1CCS(=O)(=O)O`: in assay [25], the Ki was 3.13 µM (active).
Consider `CC(C)Cc1ccc(C(C)C(=O)Nc2nccs2)cc1` (configuration not stated), for which, in assay [26], the “Absolute IC50 (XBP1)” value was 10 µM.
